Values of other authors in patent publication EP4741436A1, “POLYMERIZABLE COMPOSITION FOR OPTICAL MATERIAL, POLYMERIZABLE PREPOLYMER COMPOSITION FOR OPTICAL MATERIAL, CURED ARTICLE, AND METHOD FOR PRODUCING OPTICAL MATERIAL” (Mitsui Chemicals, Inc., priority 2023, dated 2025).
Like-named read-outs stand apart in the source and are kept apart here.

Conditions: for pKa: organic acids and basic polymerization catalysts, values given in text

Structure (SMILES)	pKa of Organic Acid (organic acid used in the composition of the column)	pKa	pKa (listed as (±)-10-camphorsulfonic acid)
CC1(C)C2CCC1(CS(=O)(=O)O)C(=O)C2 (racemic) [10-camphorsulfonic acid, (±)-10-camphorsulfonic acid]	1.17	1.2	1.17
O=S(=O)(O)c1ccccc1 [benzenesulfonic acid]		0.7	
CCCCS(=O)(=O)O [butanesulfonic acid]		1.9	

Next, values leading:

pKa of Organic Acid (organic acid used in the composition of the column)	pKa	pKa (listed as (±)-10-camphorsulfonic acid)	Structure (SMILES)
	1.8		CCS(=O)(=O)O [ethanesulfonic acid]
	1.9		CCCS(=O)(=O)O [propanesulfonic acid]
	-2.7		C=CS(=O)(=O)O [vinylsulfonic acid]
